Results as given in ChEMBL document CHEMBL3286327, “Cyclohexadepsipeptides of the isaridin class from the marine-derived fungus Beauveria felina EN-135” (J Nat Prod, 2014).
In brackets after ≈: the same amount, converted by molar mass. Numbered stars: 1 amine (or outer) side, 2 acyl side, 3 side chain; on linkers, the order of the positions; unused ones are H or OH. Square brackets hold non-standard residues; d marks the D form. Peptide text beside a SMILES is read from it. X1 = C[C@H]1CCN([*:1])[C@@H]1C(=O)[*:2]; NMeF = CN[C@@H](Cc1ccccc1)C(=O)O; Hica(2S) = CC(C)C[C@H](O)C(=O)O; NMeL = CN[C@@H](CC(C)C)C(=O)O; NMeV = CN[C@H](C(=O)O)C(C)C; βAla = NCCC(=O)O

Columns and labels:
Artemia salina = assay: Toxicity in Artemia salina at 100 ug/ml; assay type: organism-based; conditions: in vivo
Escherichia coli = assay: Antibacterial activity against Escherichia coli after 24 hrs; assay type: functional

| MIC (Escherichia coli) | SMILES | Activity (Artemia salina) |
| --- | --- | --- |
| 8 µg/mL (≈ 12.2 µM) | CC(C)C[C@@H]1NC(=O)[C@H](C(C)C)N(C)C(=O)[C@H](Cc2ccccc2)NC(=O)[C@@H]2CCCN2C(=O)[C@H](CC(C)C)OC(=O)CCNC1=O (cyclo(F[NMeV]L[βAla][Hica(2S)]P)) | Non-toxic |
| – | CC(C)C[C@@H]1OC(=O)CCNC(=O)[C@H](Cc2ccccc2)N(C)C(=O)[C@H](C(C)C)N(C)C(=O)[C@H](Cc2ccccc2)NC(=O)[C@@H]2CCCN2C1=O (cyclo(F[NMeV][NMeF][βAla][Hica(2S)]P)) | Non-toxic |
| – | CC(C)C[C@@H]1OC(=O)CCNC(=O)[C@H](Cc2ccccc2)N(C)C(=O)[C@H](C(C)C)N(C)C(=O)[C@H](Cc2ccccc2)NC(=O)[C@@H]2[C@@H](C)CCN2C1=O (cyclo(F[NMeV][NMeF][βAla][Hica(2S)][X1])) | Non-toxic |
| 64 µg/mL (≈ 95.3 µM) | CC(C)C[C@@H]1NC(=O)[C@H](C(C)C)N(C)C(=O)[C@H](Cc2ccc(O)cc2)NC(=O)[C@@H]2CCCN2C(=O)[C@H](CC(C)C)OC(=O)CCNC1=O (cyclo(L[βAla][Hica(2S)]PY[NMeV])) | Non-toxic |
| 64 µg/mL (≈ 93.3 µM) | CC(C)C[C@@H]1OC(=O)CCNC(=O)[C@H](CC(C)C)N(C)C(=O)[C@H](C(C)C)N(C)C(=O)[C@H](Cc2ccc(O)cc2)NC(=O)[C@@H]2CCCN2C1=O (cyclo([Hica(2S)]PY[NMeV][NMeL][βAla])) | Non-toxic |

| SMILES | MIC (Escherichia coli) | Activity (Artemia salina) |
| --- | --- | --- |
| CC(C)C[C@@H]1OC(=O)CCNC(=O)[C@H](C(C)C)N(C)C(=O)[C@H](C(C)C)N(C)C(=O)[C@H](Cc2ccccc2)NC(=O)[C@@H]2CCCN2C1=O (cyclo(F[NMeV][NMeV][βAla][Hica(2S)]P)) | 16 µg/mL (≈ 24.4 µM) | Non-toxic |
| O=C(N[C@H](CO)[C@H](O)c1ccc([N+](=O)[O-])cc1)C(Cl)Cl [CHLORAMPHENICOL] | 4 µg/mL (≈ 12.4 µM) | – |
